In publication PMC13224100, “Esterase-Responsive Mitochondria-Targeted Hydropersulfide Donors Mitigate Doxorubicin Cardiotoxicity While Preserving Anticancer Activity” (Angewandte Chemie (International ed. in English), 2025):

Tests used:
[1] = Stability of RSSH precursors with glutathione by HPLC; format: physicochemical; conditions: GSH 500 µM (5 equiv), PBS pH 7.4, 37 °C; for half-life at 100 µM: PBS with glutathione (500 µM), pH 7.4, precursor 100 µM, read-out: decomposition half-life (t1/2) in the presence of GSH; for decomposition half-life (t1/2) in the presence of GSH / decomposition rate constant in the presence of GSH: precursor 100 µM; for decomposition rate constant in the presence of GSH: in min-1
Experimental: We next evaluated whether our newly developed precursors generate RSSH in the presence of thiols, which are abundant in biological systems. We examined their reactivity toward glutathione (GSH, 5 equiv) in PBS (pH 7.4, 37 °C), and precursor consumption was quantified by HPLC. […] We attribute this difference to their intrinsic reactivity. As shown previously,[23] AST donors can undergo nucleophilic attack either at the carbonyl carbon, producing the intended RSSH and a thiocarbonate byproduct (Scheme 3a, Path A), or at the disulfide bond, giving an unsymmetrical disulfide and a thiocarbonate intermediate (Scheme 3a, Path B). The higher electrophilicity of the perthiocarbonate carbonyl likely explains the faster consumption of AST derivatives. In contrast, and consistent with earlier studies,[24] APT-1 and APT-1-TPP react mainly through thiol–disulfide exchange (Scheme 3b, Path B), as attack at the perthiocarbamate carbonyl is disfavored due to its lower electrophilicity compared with the perthiocarbonate in AST donors. […]
(n = 3), and data are reported as mean ± standard deviation (SD).
Stability of RSSH Precursors with Glutathione by HPLC
Stock solutions of RSSH precursor (10 mM in DMSO) and GSH (20 mM in PBS, pH 7.4) were prepared immediately prior to the assay. The RSSH precursor (100 µM) was incubated with GSH (500 µM) in phosphate-buffered saline (PBS, pH 7.4) at 37 °C. At designated time points, 200 μL aliquots were withdrawn and immediately quenched by mixing with an equal volume of ice-cold 0.1% formic acid. Samples were analyzed by Agilent HPLC with UV detection using a C18 reverse-phase column (Phenomenex Luna C18, 4.6 × 150 mm, 5 μm) at 25 °C with a flow rate of 1.0 mL/min and an injection volume of 20 μL. The gradient elution (all solvents v/v, containing 0.1% trifluoroacetic acid) was as follows: 0–10 min, linear gradient from 90% water / 10% acetonitrile to 50% water / 50% acetonitrile; 10–18 min, to 10% water / 90% acetonitrile; 18–20 min, held at 10% water / 90% acetonitrile; 20–25 min, return to 90% water / 10% acetonitrile.
Absorbance was monitored at 275 nm. The percentage of precursor remaining at each time point was calculated by comparing the absorbance at 275 nm to the initial value. All experiments were performed in triplicate (n = 3), and data are reported as mean ± standard deviation (SD).
Figure S19. Stability profiles of (A) AST-2, (B) APT-1, (C) AST-2-TPP, and (D) APT-1-TPP in PBS, pH 7.4 at 37 °C in the presence of GSH. Decomposition rate constant for AST-2, APT-1, AST-2-TPP, and APT-1- […]
Decomposition half-lives for AST-2, APT-1, AST-2-TPP, and APT-1-TPP are 8.6 ± 0.1 min, 39.7 ± 1.2 min, 6.3 ± 0.1 min, and 56.2 ± 4.0 min, respectively. Data are mean ± standard deviation (SD) (n = 3)
(§1) (1 picture or pasted object on this page, not shown here)

H9c2 cells = assay: Cytotoxicity of RSSH donors, CCK-8 assay; format: cell-based; conditions: up to 200 μM, 24 h
Experimental: We evaluated the cytoprotective effects of RSSH precursors against DOX-induced cardiotoxicity in H9c2 cardiomyoblasts. First, we assessed the cytotoxicity of the RSSH donors (AST-2, APT-1, AST-2-TPP, and APT-1-TPP) using the CCK-8 assay.[24] […] To evaluate cytoprotection, H9c2 cells were pretreated with RSSH donors for 4 h, followed by 24 h co-treatment with DOX (5 μM). As expected, DOX alone reduced cell viability to ca. 50% (Figure 4a). […] Although both compounds were protective, […]. […] A distinctive feature of our study is the direct comparison between mitochondria-targeted and non-targeted RSSH donors. […] TPP conjugation only modestly enhances the cytoprotective effects of RSSH donors under our experimental conditions. This outcome may reflect the intrinsic high efficacy of non-targeted RSSH donors, thereby limiting the additional benefit of mitochondrial targeting. […]
Cytotoxicity Assessment of Hydropersulfide Precursors in H9c2 and HepG2 cells Cell viability was measured using the Cell Counting Kit-8 (CCK-8, Dojindo).[7] H9c2 cardiomyoblast and HepG2 cells were seeded at a density of 8 × 10³ cells/well in a 96-well plate (flat-bottom, tissue culture-treated). […] All treatments were prepared with a final DMSO concentration of <0.01%. In the vehicle control group, cells were treated with medium (DMEM with 10% FBS) containing 0.01% DMSO only. Cells were incubated with RSSH donors for an additional 24 h. After 24 h, cells were gently washed three times with PBS, pH 7.4. […] The plates were then incubated for 1-2 h before measuring absorbance at 450 nm using a plate reader […]
calculated as: % Viability = 100 × [Abs₄₅₀ (treated cells) / Abs₄₅₀ (vehicle control)]. Each treatment condition was performed in 6 technical replicates per biological replicate, and the experiment was independently repeated three times (n = 3 biological replicates). Data are presented as mean ±
as §1
Figure S23. Impact of (A) AST-2 or AST-2-TPP (0-200 µM) and (B) APT-1 (0-200 µM) or APT -1-TPP (0-200 µM) on H9c2 cardiomyocytes. Impact of (C) AST-2 or AST-2-TPP (0-200 µM) and (D) APT-1 (0-200 µM) or APT-1-TPP (0-200 µM) on HepG2 (liver cancer) cells. Results are expressed as mean ± SEM, n≥3; *P<0.05, **P<0.01, ***P<0.001, ****P<0.0001. Ctl = vehicle (medium with 0.01% DMSO) treated cells. […]

half-life at 100 µM [1]	decomposition half-life (t1/2) in the presence of GSH [1]	Compound	decomposition rate constant in the presence of GSH [1]	cytotoxicity of donor alone (H9c2 cells)
6.3 ± 0.1 min	6 min	COC(=O)SSC(C)(C)C(NC(C)=O)C(=O)N(C)CCC[P+](c1ccccc1)(c1ccccc1)c1ccccc1 (stereo not shown) [AST-2-TPP]	0.1094 ± 0.00183	no measurable toxicity
39.7 ± 1.2 min	40 min	COC(=O)C(NC(C)=O)C(C)(C)SSC(=O)N(C)CCOC(C)=O (stereo not shown) [APT-1]	0.01749 ± 0.00052	no measurable toxicity
56.2 ± 4 min	56 min	CC(=O)NC(C(=O)N(C)CCC[P+](c1ccccc1)(c1ccccc1)c1ccccc1)C(C)(C)SSC(=O)N(C)CCOC(C)=O (stereo not shown) [APT-1-TPP]	0.01236 ± 0.00066	no measurable toxicity
8.6 ± 0.1 min	9 min	COC(=O)SSC(C)(C)C(NC(C)=O)C(=O)OC (stereo not shown) [AST-2]	0.08081 ± 0.00105	no measurable toxicity
